Data as given in patent US11839616B2, “Ocular pharmaceutical compositions” (THE REGENTS OF THE UNIVERSITY OF CALIFORNIA, priority 2017, dated 2023).
“Also recorded” adds a separate entry of the source. Like-named read-outs stand apart in the source and are kept apart here.

Tests used:
CFTR [1] = biological target: T1, CFTR (Oryctolagus cuniculus, UniProt Q00554); assay: open-circuit ocular surface potential difference (PD) in anesthetized rabbits, CFTR; assay type: in vivo; conditions: rabbit
T1 construct: ocular surface PD measurements provide information about CFTR function in its native environment; from tissue; host or cells: rabbit ocular surface in vivo (cornea and conjunctiva); freshly isolated rabbit forniceal and palpebral conjunctiva
Procedure: Open-circuit transepithelial potential difference (PD, in mV) at the ocular surface was measured continuously in anesthetized rabbits using a procedure modified from that established in mice. […] Rabbits were intubated and anesthetized with isoflurane, and respiratory rate, blood pressure and body temperature were monitored. For PD recording, solutions (see below) were serially perfused at 10 mL/min through PE-90 plastic tubing using a gravity multi-reservoir pinch-valve system (ALA Scientific, Westbury, NY) and a variable-flow peristaltic pump (medium flow model; Thermo Fisher Scientific, Fair Lawn, NJ). A probe catheter was fixed onto an adjustable stereotaxic frame with the tip immersed in solution contacting the ocular surface. Excess fluid was aspirated by continuous suction (low-powered wall vacuum) using ⅛-inch tubing (inner diameter 3/32 inch) positioned 3 mm from the orbit in order to maintain near-constant perfusate volume in contact with cornea, bulbar conjunctiva and palpebral conjunctiva without fluid runoff. The measuring electrode contacted the perfusion catheter and was connected to a high-impedance voltmeter (IsoMilivolt Meter; World Precision Instruments, Sarasota, FL). The reference electrode was grounded using a winged, 25-gauge needle filled with normal saline inserted subcutaneously in the abdomen. The measuring and reference electrodes consisted of Ag/AgCl with 3 M KCl agar bridges.
All solutions contained 10 M indomethacin to prevent CFTR activation by prostaglandins.

CFTR [2] = biological target: T1, CFTR; assay: short-circuit current in freshly isolated rabbit conjunctiva, CFTR; assay type: cell-based
Procedure: Short-circuit current was measured in freshly isolated rabbit conjunctiva, as described^16 with modification. Rabbits were euthanized by injection of 150 mg/kg euthasol into the marginal ear vein. The entire eyeball with eyelids intact was removed from the orbit to preserve conjunctival epithelium integrity. Within 10 min a sheet of forniceal and palpebral conjunctiva was dissected, mounted onto a P2304 tissue slider (Physiologic Instruments, San Diego, CA), and placed into the Ussing chamber. The apical and basolateral chambers contained (in mM): 120 NaCl, 3 KCl, 1 CaCl2, 1 MgCl2, 10 glucose, 25 NaHCO3 and 5 HEPES, pH 7.4. […] Hemichambers were connected to a DVC-1000 voltage clamp (World Precision Instruments Inc., Sarasota, FL) via Ag/AgCl electrodes and 3 M KCl agar bridges.
In separate electrophysiological studies, CFTR activation was measured in freshly isolated conjunctiva ex vivo by short-circuit current analysis.

CFTR [3] = biological target: CFTR (Homo sapiens, UniProt P13569); conditions: cited from earlier work; for extent of CFTR activation / EC50: cell cultures; for EC50: read-out: EC50 of CFTR activation
mice [4] = conditions: cited from earlier work
cAMP = conditions: prior studies; cited from earlier work
[5] = tissue levels by LC/MS following chronic administration; assay type: in vivo; conditions: rabbit, 3 nmol twice-daily for 28 days
Procedure: In chronic treatment studies, Compound A (3 nmol, or formulation control) was given twice daily (8 am and 4 pm) for 28 days. Two mL of blood was collected from the marginal ear vein in EDTA tubes. Rabbits were then euthanized using 150 mg/kg euthasol, and ocular tissues, serum and peripheral organs were collected. Using a surgical microscope, 150 μL of aqueous humor was collected through the peripheral cornea using a 25-gauge needle, and 300 μL of vitreous fluid was aspirated through the pars plana with a 23-gauge needle. Following transcardial perfusion with heparinized phosphate-buffered saline (PBS), eyes were enucleated with lids intact, and the cornea, iris/ciliary body, lens, bulbar, forniceal and palpebral conjunctiva, and retina of both eyes were dissected, weighed, homogenized in 1:4 mixture of water:ethyl acetate (10 mL/1 g tissue) and centrifuged (3000 rpm for 15 min). Plasma, aqueous and vitreous samples were each mixed with 3 volumes of ethyl acetate and centrifuged for 15 min at 13,200 rpm, and the supernatant was evaporated and re-dissolved in HPLC eluent (100 μL of 1:3 water:acetonitrile containing 0.1% formic acid) for LC/MS analysis. Also, brain, kidney, heart and liver were removed, weighed, mixed with 1:4 mixture of water:ethyl acetate (10 mL/1 g tissue), and homogenized. The homogenized samples were vortexed and centrifuged (3000 rpm for 15 min), and the ethyl acetate-containing supernatant was evaporated, and then re-dissolved in HPLC eluent for LC/MS analysis. The lower limit of detection for Compound A was ˜0.2 pg/mg of homogenized tissue or biological fluid, which was defined as giving a signal-to-noise ratio >3.

[6] = liver; in vitro microsomal stability; cited from earlier work
rabbits [7] = assay: chronic administration, ocular toxicity (clinical examination, histology); assay type: in vivo; conditions: rabbit
Procedure: In chronic treatment studies, eyes were treated twice daily for 28 days as described above. STT, intraocular pressure (IOP), and central corneal thickness were measured on days 0, 7, 14, 21 and 28. Slit lamp examinations were performed on days 0, 14 and 28 by a board-certified ophthalmologist blinded to treatment status. STT was done one hour after the first treatment of the day (9 am). IOP was measured with a Tonolab rebound tonometer (Colonial Medical Supply, Windham, NH). Central corneal thickness was measured using the Corneo-Gage Plus 2 pachymeter (Sonogage Inc., Cleveland, OH). […] One minute later, photographs of the eye were taken with a digital camera and staining was evaluated according to a 12-point scale as described^17: each corneal quadrant was scored in a blinded fashion on a 3-point scale: grade 0, no staining; grade 1, sporadic staining (involving <25% of the total surface); grade 2, diffuse punctate staining (25-75%); and grade 3, coalesced punctate staining (≥75%). The total grade is reported as the sum of scores from all 4 quadrants, ranging from 0 to 12. Conjunctival congestion, chemosis, discharge, corneal haze or neovascularization, anterior chamber cellular reaction or flare, iris neovascularization, lens opacification or loss of red reflex, were each rated using a modified McDonald-Shadduck scale on a four-point scale, where zero is normal.
A subset of chronically treated eyes were enucleated with eyelids intact after transcardial perfusion with PBS followed by 4% paraformaldehyde, and left overnight in 4° C. in 30% sucrose. […] Cryosections (8 μm thickness) were stained with hematoxylin and eosin (H&E) using a standard protocol.

CFTR-deficient mice = conditions: cited from earlier work
rabbits [8] = assay: Schirmer Tear Test II after single topical dose (pharmacodynamics); assay type: in vivo, rabbit
Procedure: (§1) Tear production was measured using the anesthetized Schirmer Tear Test (STT, Eagle Vision, Memphis TN). To minimize reflex tearing, one drop of 0.5% proparacaine hydrochloride (Akorn, Lake Forest, TL) was placed onto the corneal surface and excess fluid was absorbed at the medial canthus using eye spear sponges (Fine Science Tools, Foster City, CA). After 5 min the notched strip was inserted into the lower lateral conjunctival fornix, maintaining contact with the lateral cornea. The wetted length (mm) of the strip indicated by blue dye appearance was read after 5 min.
Serial STT measurements were done before and at 1, 3, 6, 9, 12 and 24 hours following application of a single 30-μL drop of Compound A formulation (or vehicle alone) into the conjunctival sac. Both eyes received the same treatment to control for potential contralateral effects of a given treatment. Pharmacokinetics and Tissue Distribution
Compound A was tested for its efficacy in augmenting tear fluid production in rabbits. Prior work identified a formulation (0.325% CMC in Ringer's solution containing 0.015% BAC and 1% DMSO) that stably solubilized Compound A and was effective when delivered topically to mice.^15 A single application of 3 nmol Compound A ([…] of a 100 µM solution) increased tear volume by ˜60% for at least 9 hours compared to vehicle (FIG. 3A). […] When 3 nmol of Compound A was delivered in a more viscous formulation containing 0.625% (instead of 0.3%) CMC, to potentially increase Compound A ocular surface residence time, compound efficacy was unchanged (FIG. 3C).

[9] = pharmacokinetics in tear fluid by LC/MS; assay type: in vivo; conditions: rabbit
Procedure: Compound A was quantified by liquid chromatography/mass spectroscopy (LC/MS) at 15 min, 1 hour, 2 hours, 6 hours and 24 hours after a single, 3-nmol topical dose. To recover Compound A at indicated times, three eye washes of 30 μL sterile PBS were done with solution recovered from the lateral and medial canthi after manual eyelid blinking using 50-μL glass capillary tubes. Pooled washes were diluted in three volumes of ethyl acetate, centrifuged at 13,000 rpm for 15 min, and the collected supernatant was analyzed by LC/MS (Waters 2695 HPLC with Micromass ZQ).^14 LC was done on an Xterra MS C18 column (2.1 mm×100 mm, 3.5 μm) with 0.2 mL/min water/acetonitrile containing 0.1% formic acid, 12 min linear gradient, 5-95% acetonitrile.
Corresponding compound concentrations in tear fluid (open circles, right ordinate) were estimated using tear volumes deduced from STT measurements in FIG. 2A.

rabbits [10] = assay: chronic administration, tear volume by STT; assay type: in vivo; conditions: rabbit, 3 nmol twice-daily for 28 days
Procedure: as §1
In chronic treatment studies, Compound A (3 nmol, or formulation control) was given twice daily (8 am and 4 pm) for 28 days. Two mL of blood was collected from the marginal ear vein in EDTA tubes. Rabbits were then euthanized using 150 mg/kg euthasol, and ocular tissues, serum and peripheral organs were collected. […]
In chronic treatment studies, eyes were treated twice daily for 28 days as described above. STT, intraocular pressure (IOP), and central corneal thickness were measured on days 0, 7, 14, 21 and 28. […] IOP was measured with a Tonolab rebound tonometer (Colonial Medical Supply, Windham, NH). Central corneal thickness was measured using the Corneo-Gage Plus 2 pachymeter (Sonogage Inc., Cleveland, OH). […]

mice [11] = conditions: lacrimal gland ablation, three times daily; cited from earlier work
ENaC [12] = assay: short-circuit current in freshly isolated rabbit conjunctiva, amiloride; conditions: amiloride 10 μM
Procedure: Short-circuit current was measured in freshly isolated rabbit conjunctiva, as described^16 with modification. Rabbits were euthanized by injection of 150 mg/kg euthasol into the marginal ear vein. The entire eyeball with eyelids intact was removed from the orbit to preserve conjunctival epithelium integrity. Within 10 min a sheet of forniceal and palpebral conjunctiva was dissected, mounted onto a P2304 tissue slider (Physiologic Instruments, San Diego, CA), and placed into the Ussing chamber. The apical and basolateral chambers contained (in mM): 120 NaCl, 3 KCl, 1 CaCl2, 1 MgCl2, 10 glucose, 25 NaHCO3 and 5 HEPES, pH 7.4. Solutions were bubbled with 95% O2/5% CO2 and maintained at 37° C. Hemichambers were connected to a DVC-1000 voltage clamp (World Precision Instruments Inc., Sarasota, FL) via Ag/AgCl electrodes and 3 M KCl agar bridges.

ENaC [13] = assay: open-circuit ocular surface potential difference (PD) in anesthetized rabbits, ENaC; conditions: rabbit, normal Cl- solution with amiloride 100 μM
Procedure: Open-circuit transepithelial potential difference (PD, in mV) at the ocular surface was measured continuously in anesthetized rabbits using a procedure modified from that established in mice. […] Rabbits were intubated and anesthetized with isoflurane, and respiratory rate, blood pressure and body temperature were monitored. For PD recording, solutions (see below) were serially perfused at 10 mL/min through PE-90 plastic tubing using a gravity multi-reservoir pinch-valve system (ALA Scientific, Westbury, NY) and a variable-flow peristaltic pump (medium flow model; Thermo Fisher Scientific, Fair Lawn, NJ). A probe catheter was fixed onto an adjustable stereotaxic frame with the tip immersed in solution contacting the ocular surface. Excess fluid was aspirated by continuous suction (low-powered wall vacuum) using ⅛-inch tubing (inner diameter 3/32 inch) positioned 3 mm from the orbit in order to maintain near-constant perfusate volume in contact with cornea, bulbar conjunctiva and palpebral conjunctiva without fluid runoff. The measuring electrode contacted the perfusion catheter and was connected to a high-impedance voltmeter (IsoMilivolt Meter; World Precision Instruments, Sarasota, FL). The reference electrode was grounded using a winged, 25-gauge needle filled with normal saline inserted subcutaneously in the abdomen. […]

P2Y2 receptors = P2Y2 receptors (Homo sapiens, UniProt P41231); conditions: phase III trials in the United States; cited from earlier work
[14] = rabbit, single topical dose of 3 nmol
[15] = 25 picomol topical administration

Sequence of CFTR (Homo sapiens, UniProt P13569) (P13569 whole entry, species assumed): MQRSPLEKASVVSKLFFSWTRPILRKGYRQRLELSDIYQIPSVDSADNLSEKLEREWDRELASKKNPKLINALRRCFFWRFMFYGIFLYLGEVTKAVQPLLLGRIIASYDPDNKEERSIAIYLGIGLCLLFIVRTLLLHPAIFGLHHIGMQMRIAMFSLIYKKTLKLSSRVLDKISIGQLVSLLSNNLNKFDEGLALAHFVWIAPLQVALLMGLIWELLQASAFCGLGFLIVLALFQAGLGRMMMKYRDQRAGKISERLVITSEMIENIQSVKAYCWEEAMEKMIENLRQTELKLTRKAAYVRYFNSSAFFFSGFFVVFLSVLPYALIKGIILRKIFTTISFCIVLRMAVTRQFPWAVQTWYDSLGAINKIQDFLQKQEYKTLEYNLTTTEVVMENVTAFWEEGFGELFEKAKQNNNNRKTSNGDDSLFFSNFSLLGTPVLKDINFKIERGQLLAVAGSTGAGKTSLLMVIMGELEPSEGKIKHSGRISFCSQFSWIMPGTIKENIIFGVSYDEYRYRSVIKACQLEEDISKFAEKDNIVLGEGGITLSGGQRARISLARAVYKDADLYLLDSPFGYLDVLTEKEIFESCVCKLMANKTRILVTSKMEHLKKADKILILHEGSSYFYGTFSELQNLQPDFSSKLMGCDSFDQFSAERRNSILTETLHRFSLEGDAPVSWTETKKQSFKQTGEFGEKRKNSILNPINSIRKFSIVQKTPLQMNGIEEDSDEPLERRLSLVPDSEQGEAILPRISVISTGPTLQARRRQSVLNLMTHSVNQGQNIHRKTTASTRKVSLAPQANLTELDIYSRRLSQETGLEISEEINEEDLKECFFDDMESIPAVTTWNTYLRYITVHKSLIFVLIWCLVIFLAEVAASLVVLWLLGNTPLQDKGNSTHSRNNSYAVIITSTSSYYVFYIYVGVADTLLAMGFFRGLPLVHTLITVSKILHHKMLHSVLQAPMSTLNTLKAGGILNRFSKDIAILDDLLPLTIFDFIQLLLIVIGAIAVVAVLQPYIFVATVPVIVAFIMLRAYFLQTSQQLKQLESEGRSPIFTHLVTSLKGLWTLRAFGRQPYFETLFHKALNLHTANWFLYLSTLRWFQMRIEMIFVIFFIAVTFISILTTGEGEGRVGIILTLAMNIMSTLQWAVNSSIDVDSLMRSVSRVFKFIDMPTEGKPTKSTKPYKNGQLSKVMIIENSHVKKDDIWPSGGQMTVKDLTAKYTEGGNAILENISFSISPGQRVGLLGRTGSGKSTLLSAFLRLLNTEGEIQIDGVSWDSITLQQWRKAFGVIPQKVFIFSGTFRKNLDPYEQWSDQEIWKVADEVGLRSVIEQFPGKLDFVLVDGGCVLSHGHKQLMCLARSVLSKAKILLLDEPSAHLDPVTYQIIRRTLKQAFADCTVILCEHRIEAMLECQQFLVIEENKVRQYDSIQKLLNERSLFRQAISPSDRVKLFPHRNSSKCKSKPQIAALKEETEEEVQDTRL
T1 sequence (Q00554 whole entry): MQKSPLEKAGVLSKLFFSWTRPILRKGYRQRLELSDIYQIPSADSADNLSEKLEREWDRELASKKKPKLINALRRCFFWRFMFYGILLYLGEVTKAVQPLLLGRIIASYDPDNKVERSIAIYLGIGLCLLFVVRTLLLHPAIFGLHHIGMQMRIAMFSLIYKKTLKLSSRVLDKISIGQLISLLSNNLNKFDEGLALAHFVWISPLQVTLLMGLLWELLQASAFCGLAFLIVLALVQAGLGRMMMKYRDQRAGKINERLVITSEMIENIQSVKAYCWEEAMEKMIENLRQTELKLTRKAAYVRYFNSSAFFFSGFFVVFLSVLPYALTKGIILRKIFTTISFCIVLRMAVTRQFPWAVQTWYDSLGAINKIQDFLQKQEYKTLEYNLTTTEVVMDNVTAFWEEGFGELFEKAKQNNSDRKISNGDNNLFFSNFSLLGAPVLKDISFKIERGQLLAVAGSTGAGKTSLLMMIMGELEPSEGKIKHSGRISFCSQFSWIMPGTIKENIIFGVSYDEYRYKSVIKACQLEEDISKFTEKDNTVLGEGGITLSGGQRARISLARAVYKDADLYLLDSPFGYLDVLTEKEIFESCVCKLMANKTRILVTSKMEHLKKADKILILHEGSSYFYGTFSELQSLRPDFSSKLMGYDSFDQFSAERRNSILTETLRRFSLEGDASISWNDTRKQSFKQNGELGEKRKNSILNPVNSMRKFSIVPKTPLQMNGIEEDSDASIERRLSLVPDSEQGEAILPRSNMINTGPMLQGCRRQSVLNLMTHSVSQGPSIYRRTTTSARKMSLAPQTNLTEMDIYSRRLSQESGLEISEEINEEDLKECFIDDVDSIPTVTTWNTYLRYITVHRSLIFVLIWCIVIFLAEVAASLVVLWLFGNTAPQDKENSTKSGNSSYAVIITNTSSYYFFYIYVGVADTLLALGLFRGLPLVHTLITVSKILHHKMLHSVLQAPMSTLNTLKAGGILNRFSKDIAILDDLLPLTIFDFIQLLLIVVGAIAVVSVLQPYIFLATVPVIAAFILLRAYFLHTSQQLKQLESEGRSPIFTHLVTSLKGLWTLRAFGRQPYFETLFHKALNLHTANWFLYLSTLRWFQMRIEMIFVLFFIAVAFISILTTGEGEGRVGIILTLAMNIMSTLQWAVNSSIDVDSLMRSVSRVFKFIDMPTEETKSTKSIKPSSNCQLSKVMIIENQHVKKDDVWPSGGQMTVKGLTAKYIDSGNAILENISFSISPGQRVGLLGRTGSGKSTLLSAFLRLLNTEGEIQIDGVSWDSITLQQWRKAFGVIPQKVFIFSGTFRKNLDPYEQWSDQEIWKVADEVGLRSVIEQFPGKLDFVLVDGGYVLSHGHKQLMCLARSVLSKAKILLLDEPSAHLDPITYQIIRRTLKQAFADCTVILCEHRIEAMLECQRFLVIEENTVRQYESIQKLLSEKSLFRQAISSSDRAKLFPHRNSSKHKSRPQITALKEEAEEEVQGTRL
Sequence of P2Y2 receptors (P41231 whole entry): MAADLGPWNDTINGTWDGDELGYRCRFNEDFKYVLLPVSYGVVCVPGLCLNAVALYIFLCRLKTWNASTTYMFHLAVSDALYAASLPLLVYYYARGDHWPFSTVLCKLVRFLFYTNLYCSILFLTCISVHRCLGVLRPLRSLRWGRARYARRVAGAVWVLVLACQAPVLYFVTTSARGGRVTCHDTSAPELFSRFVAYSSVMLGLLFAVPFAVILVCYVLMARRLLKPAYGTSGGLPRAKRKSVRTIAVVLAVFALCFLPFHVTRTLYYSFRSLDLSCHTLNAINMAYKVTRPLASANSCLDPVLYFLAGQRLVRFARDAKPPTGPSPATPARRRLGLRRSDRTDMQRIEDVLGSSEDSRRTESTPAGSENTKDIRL

Compound: 3-[(3-Trifluoromethyl)phenyl]-5-[(4-carboxyphenyl)methylene]-2-thioxo-4-thiazolidinone [CFTRinh-172, reference compound]
- effect on the PD changes (CFTR [1]; CFTRinh-172 10 μM in final perfusion solution): largely reversed
- effect on the increases in short-circuit current (CFTR [2]; inhibitor added last): inhibited

Compound: CNc1nc(Nc2ccccc2)nc(OCC(F)(F)C(F)F)n1 [Compound A, N-Methyl-N′-phenyl-6-(2,2,3,3-tetrafluoropropoxy)-1,3,5-triazine-2,4-diamine]
- extent of CFTR activation (CFTR [3]): fully activated CFTR
- EC50 (CFTR [3]): ~250 nM
- potency of CFTR activation (CFTR [3]; prior studies): nanomolar potency
- duration of doubled tear volume (mice [4]; delivered topically): four
- tear volume (mice [4]; delivered topically): doubled tear volume
- elevation of total cellular cAMP (cAMP): without detectable elevation
- level in aqueous and vitreous fluid, lens and iris/ciliary body [5]: near or below the limit of detection
- level in blood, heart, brain, liver and kidney [5]: below the limit of detection
- level in vitreous fluid [5]: not detected
- rank of levels in ocular tissues [5]: cornea>conjunctiva>>retina
- concentration at 28 days ([5]; retina, topical, read-out: level in retina, equivalent concentration): < 10 nM
- hepatic metabolism [6]: rapidly metabolized by the liver; also recorded: rapid predicted hepatic metabolism
- IOP, vehicle vs. treated eyes (rabbits [7]; 3 nmol twice-daily for 28 days): No significant differences
- Lissamine green staining (rabbits [7]; 3 nmol twice-daily for 28 days): no injury to the ocular surface
- central corneal thickness, vehicle vs. treated eyes (rabbits [7]; 3 nmol twice-daily for 28 days): No significant differences
- slit-lamp evaluation (rabbits [7]; 3 nmol twice-daily for 28 days): no evidence of conjunctival hyperemia, anterior chamber inflammation, or lens opacification
- histology of cornea, conjunctiva, lens, ciliary body, retina (rabbits [7]; day 28): no pathological changes
- acute ocular irritation (blinking, behavior) (rabbits [7]; following topical administrations): No apparent acute ocular irritation
- effect in CFTR-deficient mice (CFTR-deficient mice): without effect; also recorded: absence of Compound A effect
- time to maximal CFTR activation at the ocular surface (PD) (CFTR [1]; after exposure): within a few minutes
- change in ocular surface PD (CFTR [1]; low Cl- + amiloride, Compound A 1 and 10 μM): substantial depolarization
- increase in tear fluid volume (rabbits [8]; from STT wetting using reported relationship between STT wetting and volume): 2.7 µL
- compound efficacy in more viscous formulation (rabbits [8]; rabbit, 3 nmol, 0.625% (instead of 0.3%) CMC): unchanged
- increase in tear volume compared to vehicle (rabbits [8]; rabbit, single application of 3 nmol, 0.3% CMC): ~60%
- tear production (rabbits [8]; rabbit, single dose 0.75 nmol): no significant increase
- activity on tear production (rabbits [8]; rabbit, single dose 1.5 nmol): reduced duration of activity
- augmentation in tear production by STT, average over 9 hours (rabbits [8]; [14]): 5.3 mm
- duration of increase in tear volume / tear secretion (rabbits [8]; [14]): at least 9 hours
- change in short-circuit current (CFTR [2]; 1 and then 10 μM Compound A after forskolin 25 nM): further increased
- EC50 (CFTR [2]; rabbit conjunctiva ex vivo, data at 1 vs. 10 μM, read-out: apparent EC50 of CFTR activation (short-circuit current)): < 1000 nM
- time at predicted therapeutic concentrations in tear fluid ([9]; 3-nmol dose, concentrations estimated using tear volumes from STT): at least several hours
- Compound A recovered from tear fluid over time ([9]; single topical dose of 3 nmol, three eye washes): approximate exponential decline
- tear volume (STT) (rabbits [10]): augmented tear volume in a sustained fashion without tachyphylaxis

Compound: CCN(CC)c1nc(Nc2ccccc2)nc(OC(C(F)(F)F)C(F)(F)F)n1 [Compound C]
- extent of CFTR activation (CFTR [3]): fully activated CFTR
- EC50 (CFTR [3]): ~30 nM
- corneal epithelial disruption (mice [11]): prevented corneal epithelial disruption
- pathology when administered after development of dry eye (mice [11]): reversed pathology
- tear volume (mice [11]): normalized tear volume
- duration of increase in tear volume (mice [4]; [15]): 8 h
- tear volume (mice [4]; [15]): sustained increase in tear volume

Compound: N=C(N)NC(=O)c1nc(Cl)c(N)nc1N [amiloride]
- effect on short-circuit current (ENaC [12]): no effect
- change in ocular surface PD (ENaC [13]): initial depolarization

Compound: O=c1ccn([C@@H]2O[C@H](COP(=O)(O)OP(=O)(O)OP(=O)(O)OP(=O)(O)OC[C@H]3O[C@@H](n4ccc(=O)[nH]c4=O)[C@H](O)[C@@H]3O)[C@@H](O)[C@H]2O)c(=O)[nH]1 [diquafosol]
- efficacy in dry eye (P2Y2 receptors): did not show efficacy
